Values of other authors as cited in patent publication US5576012A, “Pharmaceutical aqueous formulations containing a sparingly soluble pharmaceutical active compound with a solubilizing polymeric agent” (priority 1990, dated 1996).
Where two headings read alike, the source gives them in different places.

Assays:
[1] = not given; remark: listed apart in the source

Q: For `CCO` [ethanol], which Intravasal hemolytic reactions (intravasal) is on record?
A: Its Intravasal hemolytic reactions is “detectable”.

Q: Which “water-solubility (in words)” value ([1]; active compounds for intravasal use) does the source give for `CC(C)c1cccc(C(C)C)c1O` [propofol, reference compound] here?
A: Its value is “too low to dissolve the therapeutic dose in an acceptable volume”.

Q: For `CC(O)CO` (stereo not drawn) [propylene glycol], which Intravasal hemolytic reactions (in vivo) is on record?
A: The Intravasal hemolytic reactions was “detectable”.

Q: With `OC[C@H]1O[C@@H]2O[C@H]3[C@H](O)[C@@H](O)[C@@H](O[C@H]4[C@H](O)[C@@H](O)[C@@H](O[C@H]5[C@H](O)[C@@H](O)[C@@H](O[C@H]6[C@H](O)[C@@H](O)[C@@H](O[C@H]7[C@H](O)[C@@H](O)[C@@H](O[C@H]1[C@H](O)[C@H]2O)O[C@@H]7CO)O[C@@H]6CO)O[C@@H]5CO)O[C@@H]4CO)O[C@@H]3CO` [α-CD, α-cyclodextrin] as the compound, how does the water-solubility ([1]; cyclodextrins in water) read?
A: The water-solubility was 17.4%.

Q: With `OC[C@H]1O[C@@H]2O[C@H]3[C@H](O)[C@@H](O)[C@@H](O[C@H]4[C@H](O)[C@@H](O)[C@@H](O[C@H]5[C@H](O)[C@@H](O)[C@@H](O[C@H]6[C@H](O)[C@@H](O)[C@@H](O[C@H]7[C@H](O)[C@@H](O)[C@@H](O[C@H]8[C@H](O)[C@@H](O)[C@@H](O[C@H]1[C@H](O)[C@H]2O)O[C@@H]8CO)O[C@@H]7CO)O[C@@H]6CO)O[C@@H]5CO)O[C@@H]4CO)O[C@@H]3CO` [β-CD, β-cyclodextrin] as the compound, how does the “toxic action on parenteral administration” value (administered parenterally) read?
A: Its value is “nephrotoxic action”.

Q: For `OC[C@H]1O[C@@H]2O[C@H]3[C@H](O)[C@@H](O)[C@@H](O[C@H]4[C@H](O)[C@@H](O)[C@@H](O[C@H]5[C@H](O)[C@@H](O)[C@@H](O[C@H]6[C@H](O)[C@@H](O)[C@@H](O[C@H]7[C@H](O)[C@@H](O)[C@@H](O[C@H]8[C@H](O)[C@@H](O)[C@@H](O[C@H]9[C@H](O)[C@@H](O)[C@@H](O[C@H]1[C@H](O)[C@H]2O)O[C@@H]9CO)O[C@@H]8CO)O[C@@H]7CO)O[C@@H]6CO)O[C@@H]5CO)O[C@@H]4CO)O[C@@H]3CO` [γ-CD, γ-cyclodextrin], which water-solubility ([1]; water) is on record?
A: The water-solubility was 25.8%.
